Reference: patent US9487819B2, “Quantitative genetically encoded optical reporter construct” (Cornell University, priority 2009, dated 2016)

Columns and labels:
[1] = system: [ATP] in nerve terminals of neurons; assay: Presynaptic [ATP] at rest reported by Syn-ATP under metabolic inhibitors; assay type: cell-based, rat; details: resting neurons, TTX to block action potential firing (FIG. 15)
Protocol: All experiments were performed using dissociated primary hippocampal neurons according to procedures that have been previously described in Ryan T A. J. Neurosci 19:1317-1323 (1999). Briefly, hippocampi from newborn rats (P2-P4) were removed and dissected. Prior to cell dissociation, the dendate gyrus was removed leaving a relatively pure population of CA3 & CA1 excitatory neurons and interneurons. […] For fluorescence and luminescence experiments cover slips were mounted in a rapid switching low volume perfusion chamber equipped with stimulus electrodes and mounted on the stage of an inverted microscope equipped with EMCCD detection and laser-based wide-field illumination. Chemiluminescence was imaged using the same apparatus as the fluorescence, however no excitation source was used during the detection of light.
On DIV 14-25, neurons were mounted in a custom-built physiological perfusion chamber with temperature control that allows direct control of field stimulation to drive action potential firing. […] Luminescence and fluorescence imaging were performed using an EM-CCD Andor Ixon, thinned back-illuminated sensor through a 1.3 NA 40× fluar objective. Neurons expressing Syn-ATP were perfused with 20 mM luciferin, one minute prior to and throughout the period during which the luminescence images was obtained. […]

[2] = maximal number of photons emitted; cited from earlier work

## O=CC[C@@H](O)[C@H](O)[C@H](O)CO [2-deoxyglucose]
[1]
  change of [ATP] at rest: decreases

## CC[C@H]1/C=C/C=C/C[C@@H](C)[C@H](O)[C@@](C)(O)C(=O)[C@@H](C)[C@H](O)[C@@H](C)C(=O)[C@@H](C)[C@H](O)[C@@H](C)/C=C/C(=O)O[C@@H]2[C@H](C)[C@H](CC1)O[C@]1(CC[C@H](C)[C@H](C[C@@H](C)O)O1)[C@H]2C [oligomycin]
[1]
  change of [ATP] at rest: does not change

B1: Photonus pyralis luciferase: 62 kD firefly luciferase, SEQ ID NO: 1 (protein, listed as Photonis pyralis)
chain: MEDAKNIKKGPAPFYPLEDGTAGEQLHKAMKRYALVPGTIAFTDAHIEVDITYAEYFEMSVRLAEAMKRYGLNTNHRIVVCSENSLQFFMPVLGALFIGVAVAPANDIYNERELLNSMGISQPTVVFVSKKGLQKILNVQKKLPIIQKIIIMDSKTDYQGFQSMYTFVTSHLPPGFNEYDFVPESFDRDKTIALIMNSSGSTGLPKGVALPHRTACVRFSHARDPIFGNQIIPDTAILSVVPFHHGFGMFTTLGYLICGFRVVLMYRFEEELFLRSLQDYKIQSALLVPTLFSFFAKSTLIDKYDLSNLHEIASGGAPLSKEVGEAVAKRFHLPGIRQGYGLTETTSAILITPEGDDKPGAVGKVVPFFEAKVVDLDTGKTLGVNQRGELCVRGPMIMSGYVNNPEATNALIDKDGWLHSGDIAYWDEDEHFFIVDRLKSLIKYKGYQVAPAELESILLQHPNIFDAGVAGLPDDDAGELPAAVVVLEHGKTMTEKEIVDYVASQVTTAKKLRGGVVFVDEVPKGLTGKLDARKIREILIKAKKGGKIAV
[2]
  kcat: approximately 1.6 per sec
